# Assays:
# Format in all cases: cell-based, human
# Rho/MKL1 pathway = test: SRE.L-firefly luciferase reporter (dual luciferase assay), Gα12QL-transfected PC-3 cells; conditions: for inhibition at 10 µM: read-out: % inh SRE.L (10 μM); for inhibition at 100 µM: read-out: % inh SRE.L (100 μM)
# Procedure: (§1) Dual Luciferase Assay: Seed PC-3 prostate cancer cells (40,000 cells/well) were grown in 96-well plates in 10% FBS containing DMEM medium. Cells were transiently transfected with the Gα12QL activator of the Rho/MKL1 pathway, along with the SRE.L-firefly luciferase reporter construct for 6 hours. Additionally, cells were co-transfected with the TK-Renilla luciferase reporter as an indicator of non-specific compound effects. Various concentrations of selected compounds were added to the 96-well plates. Plates were incubated for 19 hours at 37° C. and 5% CO2 in 0.5% FBS containing DMEM medium. Cells were lysed with 1X Passive Lysis Buffer (Promega). Plates were incubated for 30 minutes at room temperature. Luminescence counts were read with a Victor2 (Perkin-Elmer) plate reader.
# [1] = system: PC-3 prostate cancer cells; test: WST1 cell viability assay; conditions: PC-3 cells, just before lysis; for inhibition at 10 µM / inhibition at 100 µM: Homo sapiens; for inhibition at 10 µM: PC-3, 10 μM, read-out: % inh WST-1 (10 μM); for inhibition at 100 µM: PC-3, 100 μM, read-out: % inh WST-1 (100 μM)
# Procedure: WST1 Cell Viability Assay: One hour prior to cell lysis for the dual luciferase assay, 10 μl per well of WST1 reagent (Roche) was added to the 96-well plates. Plates were incubated for 1 hour at 37° C. and 5% CO2. Cell viability was measured by WST1 absorbance at 450 nm with a Victor2 (Perkin-Elmer) plate reader.
# [2] = system: TK-Renilla luciferase reporter; test: TK-Renilla (pRL-TK) luciferase reporter, indicator of non-specific compound effects; conditions: PC-3 cells; for inhibition at 10 µM / inhibition at 100 µM: Homo sapiens, PC-3, 19 h; for inhibition at 10 µM: read-out: % inh PRL-TK (10 μM); for inhibition at 100 µM: read-out: % inh PRL-TK (100 μM)
# Procedure: as §1
# [3] = Homo sapiens, 19 h, 10 μM, DMSO alone = 0%
# [4] = Homo sapiens, 19 h, 100 μM, DMSO alone = 0%
Compound,"IC50 (Rho/MKL1 pathway; Homo sapiens, 19 h) [µM]",inhibition at 10 µM (Rho/MKL1 pathway; [3]) [%],inhibition at 10 µM [1] [%],inhibition at 10 µM [2] [%],"% inh SRE.L (10 μM) (Rho/MKL1 pathway; 10 μM, 19 hrs, DMSO alone = 0%) [%]","% inh SRE.L (100 μM) (Rho/MKL1 pathway; 100 μM, 19 hrs, DMSO alone = 0%) [%]",IC50 (Rho/MKL1 pathway; 19 hrs) [µM],inhibition at 100 µM (Rho/MKL1 pathway; [4]) [%],"% inh WST-1 (100 μM) ([1]; 100 μM, 100 µM) [%]",inhibition at 100 µM [1] [%],"% inh PRL-TK (100 μM) ([2]; 100 μM, 19 hrs) [%]",inhibition at 100 µM ([2]; 100 μM) [%]
"O=C(Nc1ccccc1C(=O)Nc1ccc(Cl)cc1)c1cc(C(F)(F)F)cc(C(F)(F)F)c1 [Compound 16, N-(2-(4-chlorophenylcarbamoyl)phenyl)-3,5-bis(trifluoromethyl)benzamide]",18,34,0,0,–,–,–,–,–,–,–,–
"O=C(CCNC(=O)c1cc(C(F)(F)F)cc(C(F)(F)F)c1)Nc1ccc(Cl)cc1 [Compound 30, N-(3-(4-chlorophenylamino)-3-oxopropyl)-3,5-bis(trifluoromethyl)benzamide]",25,44,0,0,38,64,38,66,10,6,22,15
"O=C(CONC(=O)c1ccc(Cl)cc1)Nc1cc(C(F)(F)F)cc(C(F)(F)F)c1 [Compound 6, N-(2-(3,5-bis(trifluoromethyl)phenylamino)-2-oxoethoxy)-4-chlorobenzamide]",8.6,58,11,19,–,–,–,100,–,96,–,87
"O=C(NCCC(=O)N1CCc2cc(Cl)ccc21)c1cc(C(F)(F)F)cc(C(F)(F)F)c1 [Compound 29, N-(3-(5-chloroindolin-1-yl)-3-oxopropyl)-3,5-bis(trifluoromethyl)benzamide]",13,15,0,0,–,–,–,40,–,0,–,1
"O=C(Nc1ccc(Cl)cc1)C1CCN(C(=O)c2cc(C(F)(F)F)cc(C(F)(F)F)c2)CC1 [Compound 5, 1-(3,5-bis(trifluoromethyl)benzoyl)-N-(4-chlorophenyl)piperidine-4-carboxamide]",16,17,0,0,–,–,–,87,–,39,–,17
"O=C(CC1CC(c2cc(C(F)(F)F)cc(C(F)(F)F)c2)=NO1)Nc1ccc(Cl)cc1 (stereo not shown) [Compound 23, 2-(3-(3,5-bis(trifluoromethyl)phenyl)-4,5-dihydroisoxazol-5-yl)-N-(4-chlorophenyl)acetamide]",4.6,77,0,58,–,–,–,87,–,66,–,73
"O=C(NCCCNc1ccc(Cl)cc1)c1cc(C(F)(F)F)cc(C(F)(F)F)c1 [Compound 15, N-(3-(4-chlorophenylamino)propyl)-3,5-bis(trifluoromethyl)benzamide]",5.1,70,0,37,–,–,–,80,–,11,–,35
"O=C(NCc1csc(-c2ccc(Cl)cc2)n1)c1cc(C(F)(F)F)cc(C(F)(F)F)c1 [Compound 18, N-((2-(4-chlorophenyl)thiazol-4-yl)methyl)-3,5-bis(trifluoromethyl)benzamide]",4.1,50,0,39,–,–,–,45,–,0,–,38
"O=C(CNC(=O)c1cc(C(F)(F)F)cc(C(F)(F)F)c1)Nc1ccc(Cl)cc1 [Compound 3, N-(2-(4-chlorophenylamino)-2-oxoethyl)-3,5-bis(trifluoromethyl)benzamide]",33,45,0,15,–,–,–,85,–,30,–,25
"O=C(Nc1ccc(Cl)cc1)C1CCCN1C(=O)c1cc(C(F)(F)F)cc(C(F)(F)F)c1 (stereo not shown) [Compound 7, 1-(3,5-bis(trifluoromethyl)benzoyl)-N-(4-chlorophenyl)pyrrolidine-2-carboxamide]",69,23,0,12,–,–,–,83,–,22,–,27
"O=C(CCCNC(=O)c1cc(C(F)(F)F)cc(C(F)(F)F)c1)Nc1ccc(Cl)cc1 [Compound 2, N-(4-(4-chlorophenylamino)-4-oxobutyl)-3,5-bis(trifluoromethyl)benzamide]",21,37,0,5,–,–,–,79,–,12,–,42

# Reference: patent publication US20120252792A1, “METHODS AND COMPOSITIONS FOR MODULATING RHO-MEDIATED GENE TRANSCRIPTION” (THE REGENTS OF THE UNIVERSITY OF MICHIGAN, priority 2009, published 2012)
